Source: US11547681B2, “N-acylethanolamide derivatives and uses thereof” (ELIEM THERAPEUTICS, INC., priority 2016, dated 2023)
One block for each compound: values may come before it.

Assay: in vitro
Details: for Measured concentration of PEA (analyte) / % Remaining of Initial / Concentration of analyte I-9 / Concentration of analyte PEA / Measured concentration of analyte PEA, 0 min / Measured concentration of analyte PEA, 10 min / Measured concentration of analyte PEA, 20 min / Measured concentration of analyte PEA, 30 min / Measured concentration of analyte PEA, 60 min / % Remaining of Initial (n = 1) / % Remaining of Initial, 0 min / % Remaining of Initial, 10 min / % Remaining of Initial, 20 min / % Remaining of Initial, 30 min / % Remaining of Initial, 60 min: 1 μM; for % Remaining of Initial / microsomal CLint at 1 μM / half-life at 1 μM / % Remaining of Initial (n = 1) / % Remaining of Initial, 0 min / % Remaining of Initial, 10 min / % Remaining of Initial, 20 min / % Remaining of Initial, 30 min / % Remaining of Initial, 60 min: microsomes
Protocol: The reaction mixture, minus cofactors, was prepared as described below. The test article was added into the reaction mixture at a final concentration of 1 μM. […] An aliquot of the reaction mixture (without cofactor) was equilibrated in a shaking water bath at 37° C. for 3 minutes. The reaction was initiated by the addition of cofactor, and the mixture was incubated in a shaking water bath at 37° C. Aliquots (100 μL) were withdrawn at 0, 10, 20, 30, and 60 minutes. All samples were immediately combined with 400 μL of ice-cold 50/50 acetonitrile/H2O containing 0.1% formic acid and internal standard to terminate the reaction. The samples were then mixed and centrifuged to precipitate proteins. Calibration standards were prepared in matched matrix. All samples and standards were assayed by LC-MS/MS using electrospray ionization for both the dosed prodrug I-9 and the expected drug (PEA). Analytical conditions are outlined in Appendix 4-1. The test article concentration at each time point was compared to the test article concentration at time 0 to determine the percent remaining at each time point. Half-lives were calculated using GraphPad software, fitting to a single-phase exponential decay equation.
Reaction mixture, minus cofactors, was prepared as described below. Test article was added into the reaction mixture at a final concentration of 1 μM. […] An aliquot of the reaction mixture (without cofactor) was equilibrated in a shaking water bath at 37° C. for 3 minutes. The reaction was initiated by the addition of cofactor, and the mixture was incubated in a shaking water bath at 37° C. Aliquots (100 μL) were withdrawn at 0, 10, 20, 30, and 60 minutes. Test article samples were immediately combined with 300 μL of ice-cold acetonitrile containing 1% formic acid. Control samples were immediately combined with 400 μL of ice-cold 50/50 acetonitrile (ACN)/dH2O containing 0.1% formic acid and internal standard to terminate the reaction. Samples were then mixed and centrifuged to precipitate proteins. Calibration standards were prepared in matched matrix. Samples and standards were assayed by LC-MS/MS using electrospray ionization for both dosed prodrug and expected drug (PEA). Analytical conditions are outlined in Appendix 8-1. Test article concentration at each time point was compared to test article concentration at time 0 to determine the percent remaining at each time point. Half-lives were calculated using GraphPad software, fitting to a single-phase exponential decay equation.
Reaction mixture, minus cofactors, was prepared as described below. Test article was added into the reaction mixture at a final concentration of 1 μM. […] An aliquot of the reaction mixture (without cofactor) was equilibrated in a shaking water bath at 37° C. for 5 minutes. Reaction was initiated by the addition of cofactor, and the mixture was incubated in a shaking water bath at 37° C. Aliquots (100 μL) were withdrawn at 0, 10, 20, 30, and 60 minutes. Test article samples were immediately combined with 300 μL of ice-cold acetonitrile containing 1% formic acid. Control samples were immediately combined with 400 μL of ice-cold 50/50 acetonitrile (ACN)/dH2O containing 0.1% formic acid and internal standard to terminate the reaction. Samples were then mixed and centrifuged to precipitate proteins. Calibration standards were prepared in matched matrix. Samples and standards were assayed by LC-MS/MS using electrospray ionization for both the dosed prodrug and the expected drug (PEA). Analytical conditions are outlined in Appendix 10-1. Test article concentration at each time point was compared to the test article concentration at time 0 to determine the percent remaining at each time point. Half-lives were calculated using GraphPad software, fitting to a single-phase exponential decay equation.
Reaction mixture, minus cofactors, was prepared as described below. Test article was added into the reaction mixture at a final concentration of 1 μM.

[1] = both, human, calculated value in parentheses
[2] = both, human, Half-life, calculated value in parentheses
[3] = male, Sprague-Dawley, rat, 0 min
[4] = male, Sprague-Dawley, rat, 10 min
[5] = male, Sprague-Dawley, rat, 20 min
[6] = male, Sprague-Dawley, rat, 30 min
[7] = male, Sprague-Dawley, rat, 60 min
[8] = male, Sprague-Dawley, rat, 0.5 h
[9] = male, Sprague-Dawley, rat, calculated value in parentheses
[10] = male, Sprague-Dawley, rat, Half-life
[11] = male, Sprague-Dawley, rat, Half-life, calculated value in parentheses

Measured concentration of PEA (analyte) (both, human, 0 min): 0.063 µM
Measured concentration of PEA (analyte) (both, human, 10 min): 0.34 µM
Measured concentration of PEA (analyte) (both, human, 20 min): 0.25 µM
Measured concentration of PEA (analyte) (both, human, 30 min): 0.21 µM
Measured concentration of PEA (analyte) (both, human, 60 min): 0.070 µM
% Remaining of Initial (both, human, 0 h): 100%
% Remaining of Initial (both, human, 10 min): 2.8%
% Remaining of Initial (both, human, 20 min): <1.0%
% Remaining of Initial (both, human, 0.5 h): <1.0%
% Remaining of Initial (both, human, 1 h): <1.0%
microsomal CLint at 1 μM (both, human): > 139 µL/min/mg
microsomal CLint at 1 μM [1]: 712 µL/min/mg
half-life at 1 μM (both, human, Half-life): < 10 min
half-life at 1 μM [2]: 2 min
Measured concentration of PEA (analyte) [3]: 0.033 µM
Measured concentration of PEA (analyte) [4]: 0.041 µM
Measured concentration of PEA (analyte) [5]: 0.019 µM
Measured concentration of PEA (analyte) [6]: 0 µM
Measured concentration of PEA (analyte) [7]: 0 µM
% Remaining of Initial (male, Sprague-Dawley, rat, 0 h): 100%
% Remaining of Initial [4]: 4.3%
% Remaining of Initial [5]: 1.2%
% Remaining of Initial [8]: <1.0%
% Remaining of Initial (male, Sprague-Dawley, rat, 1 h): <1.0%
microsomal CLint at 1 μM (male, Sprague-Dawley, rat): > 139 µL/min/mg
microsomal CLint at 1 μM [9]: 624 µL/min/mg
half-life at 1 μM [10]: < 10 min
half-life at 1 μM [11]: 2.2 min
Structure (SMILES): CCCCCCCCCCCCCCCC(=O)NCCOC(=O)CCC(=O)OC(CO)CO [Compound I-8]

Concentration of analyte I-9 (both, human, 0 min): 180 nM
Concentration of analyte PEA (both, human, 0 min): 830 nM
Measured concentration of analyte PEA, 0 min (both, human, 0 min): 0.47 µM
Concentration of analyte I-9 (both, human, 10 min): 2.1 nM
Concentration of analyte PEA (both, human, 10 min): 600 nM
Measured concentration of analyte PEA, 10 min (both, human, 10 min): 0.39 µM
Concentration of analyte I-9 (both, human, 20 min): 0 nM
Concentration of analyte PEA (both, human, 20 min): 510 nM
Measured concentration of analyte PEA, 20 min (both, human, 20 min): 0.22 µM
Concentration of analyte I-9 (both, human, 30 min): 0 nM
Concentration of analyte PEA (both, human, 30 min): 410 nM
Measured concentration of analyte PEA, 30 min (both, human, 30 min): 0.16 µM
Concentration of analyte I-9 (both, human, 60 min): 0 nM
Concentration of analyte PEA (both, human, 60 min): 200 nM
Measured concentration of analyte PEA, 60 min (both, human, 60 min): 0.058 µM
% Remaining of Initial (n = 1) (both, human, 0 h): 100%
% Remaining of Initial, 0 min (both, human, 0 h): 100%
% Remaining of Initial (n = 1) (both, human, 10 min): 1.2%
% Remaining of Initial, 10 min (both, human, 10 min): <1.0%
% Remaining of Initial (n = 1) (both, human, 20 min): <1.0%
% Remaining of Initial, 20 min (both, human, 20 min): <1.0%
% Remaining of Initial (n = 1) (both, human, 0.5 h): <1.0%
% Remaining of Initial, 30 min (both, human, 0.5 h): <1.0%
% Remaining of Initial (n = 1) (both, human, 1 h): <1.0%
% Remaining of Initial, 60 min (both, human, 1 h): <1.0%
microsomal CLint at 1 μM [1]: 888 µL/min/mg
half-life at 1 μM (both, human, Half-Life): < 10 min
half-life at 1 μM (both, human, Half-life): < 1 min
half-life at 1 μM [2]: 1.6 min
Concentration of analyte I-9 [3]: 210 nM
Concentration of analyte PEA [3]: 350 nM
Measured concentration of analyte PEA, 0 min [3]: 0.22 µM
Concentration of analyte I-9 [4]: 8.5 nM
Concentration of analyte PEA [4]: 160 nM
Measured concentration of analyte PEA, 10 min [4]: 0.066 µM
Concentration of analyte I-9 [5]: 0 nM
Concentration of analyte PEA [5]: 76 nM
Measured concentration of analyte PEA, 20 min [5]: 0.017 µM
Concentration of analyte I-9 [6]: 0 nM
Concentration of analyte PEA [6]: 27 nM
Measured concentration of analyte PEA, 30 min [6]: 0 µM
Concentration of analyte I-9 [7]: 0 nM
Concentration of analyte PEA [7]: 3 nM
Measured concentration of analyte PEA, 60 min [7]: 0 µM
% Remaining of Initial (n = 1) (male, Sprague-Dawley, rat, 0 h): 100%
% Remaining of Initial, 0 min (male, Sprague-Dawley, rat, 0 h): 100%
% Remaining of Initial (n = 1) [4]: 4.0%
% Remaining of Initial, 10 min [4]: 1.9%
% Remaining of Initial (n = 1) [5]: <1.0%
% Remaining of Initial, 20 min [5]: <1.0%
% Remaining of Initial (n = 1) [8]: <1.0%
% Remaining of Initial, 30 min [8]: <1.0%
% Remaining of Initial (n = 1) (male, Sprague-Dawley, rat, 1 h): <1.0%
% Remaining of Initial, 60 min (male, Sprague-Dawley, rat, 1 h): <1.0%
microsomal CLint at 1 μM [9]: 642 µL/min/mg
half-life at 1 μM (male, Sprague-Dawley, rat, Half-Life): < 10 min
half-life at 1 μM [10]: 1.8 min
half-life at 1 μM [11]: 2.2 min
Structure (SMILES): CCCCCCCCCCCCCCCC(=O)NCCOC(=O)CCC(=O)OCC(O)CO (centres unmarked) [Compound I-9]
